Assay results reported in patent publication US20070099854A1, “Use of pentadienoic acid derivatives for the treatment of hyperuricemia” (priority 2003, published 2007).

Key:
[1] = tested on: plasma uric acid concentration; assay: Hypouricemic effect of compound A in healthy male volunteers, single oral administration; type: in vivo, human (healthy male volunteers); conditions: at 24 hours
Protocol: Hypouricemic effect of compound A in healthy male volunteers
Forty-eight healthy male volunteers received orally either EMD or a placebo as a single administration in the morning. Six doses were administered 50 mg, 100 mg, 200 mg, 400 mg, 800 mg and 1200 mg once daily. In each group of dose, 6 subjects received compound A and 2 subjects received a placebo. Plasma uric acid concentrations were assessed in all dose groups.
The drop of plasma uric acid concentration was around 45% for the lowest tested dose (50 mg) and the maximum effect was observed from the 800 mg dose (80%).
FIG. 1: Mean plasma uric acid concentration in each group of dose before and 24 hours after drug intake (single dose) in subjects receiving compound A.

Structure (SMILES)	melting point [°C]	other results
CCOC(=O)/C=C(C)/C=C/C1=Cc2ccccc2OC1 [Example 3a]	110 to 112	
CC(/C=C/C1=Cc2ccccc2OC1)=C\C(=O)O [Example 3b]	226 to 228	
CC(/C=C/C1=Cc2ccccc2OC1(C)C)=C\C(=O)O [Example 4b]	164 to 166	
CC(=C/C(=O)O)/C=C/C1=Cc2ccccc2OC1(C)C [Example 5b]	176	
CC(/C=C/C1=C(c2ccccc2)c2ccccc2OC1)=C\C(=O)O [Example 7b]	258 to 260	
CC1=C(/C=C/C(C)=C/C(=O)O)COc2ccccc21 [Example 11b]	216 to 218	
CC(=C/C(=O)O)/C=C/C1=Cc2ccccc2OC1 [Example 12b]	224 to 226	
CC(/C=C/C1=Cc2ccccc2OC1c1ccccc1)=C\C(=O)O (centres unmarked) [Example 14b]	200 to 202	
COc1ccc2c(c1)C(/C=C/C(C)=C/C(=O)O)=CC(C)(C)CO2 [compound A, (2E,4E)-5-(3,3-dimethyl-7-methoxy-2,3-dihydrobenzoxepin-5-yl)-3-methylpenta-2,4-dienoic acid]		drop of plasma uric acid concentration ([1]; 50 mg (lowest tested dose)): around 45%; change in plasma uric acid concentration ([1]; all dose groups 50-1200 mg): dose dependant decrease; drop of plasma uric acid concentration (maximum effect) ([1]; from the 800 mg dose): 80%
